# pKi: −log10 of the molar value.
# Biological target: T1, human GlyT1c transporter (Homo sapiens, UniProt P48067)
# T1 construct: expressed in transfected cells; host or cells: CHO cells (recombinant; membranes)
# T1 sequence (P48067 1-706): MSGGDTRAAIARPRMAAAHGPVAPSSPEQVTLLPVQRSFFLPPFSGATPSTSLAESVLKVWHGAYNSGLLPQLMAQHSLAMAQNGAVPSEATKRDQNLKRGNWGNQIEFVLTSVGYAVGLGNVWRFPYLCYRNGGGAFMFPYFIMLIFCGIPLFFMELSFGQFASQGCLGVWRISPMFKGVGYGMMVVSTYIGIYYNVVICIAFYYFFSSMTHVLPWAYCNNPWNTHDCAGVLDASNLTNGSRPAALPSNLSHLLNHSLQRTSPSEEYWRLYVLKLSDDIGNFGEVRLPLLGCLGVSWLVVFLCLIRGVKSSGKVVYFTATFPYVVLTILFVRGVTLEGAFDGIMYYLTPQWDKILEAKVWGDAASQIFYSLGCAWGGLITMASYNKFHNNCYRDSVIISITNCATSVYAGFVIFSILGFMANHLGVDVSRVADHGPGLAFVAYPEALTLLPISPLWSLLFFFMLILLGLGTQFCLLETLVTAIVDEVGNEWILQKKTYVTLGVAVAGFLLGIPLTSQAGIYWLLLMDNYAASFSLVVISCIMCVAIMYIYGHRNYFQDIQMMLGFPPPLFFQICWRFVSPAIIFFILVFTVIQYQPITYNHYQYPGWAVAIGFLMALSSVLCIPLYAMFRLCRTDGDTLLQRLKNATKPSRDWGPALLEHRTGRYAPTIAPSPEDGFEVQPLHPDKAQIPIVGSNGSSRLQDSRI
# Experiment: Radioligand binding assay using recombinant CHO cell membranes expressing human GlyT1
# Conditions: values given as upper bounds, read-out: radioligand binding Kiapp
# Protocol: 2. Radioligand Binding Assays Using Recombinant CHO Cell Membranes Expressing Human GlyT1:
# Radioligand binding to human GlyT1c transporter-expressing membranes was determined as described in Mezler et al., Molecular Pharmacology 74:1705-1715, 2008.
row,SMILES,pKi
1,"CCS(=O)(=O)NCc1cc2c(cc1F)OC[C@@H](NC)[C@@H]2Cc1ccccc1 (relative stereo) [Example 28, trans-Ethanesulfonic acid (-4-benzyl-7-fluoro-3-methylamino-chroman-6-ylmethyl)-amide]",≥ 7.00
2,"CCS(=O)(=O)NCCOc1cc2c(cc1F)OC[C@@H](NC)[C@@H]2Cc1ccccc1 (relative stereo) [Example 30, trans-Ethanesulfonic acid [2-(-4-benzyl-7-fluoro-3-methylamino-chroman-6-yloxy)-ethyl]-amide]",≥ 6.00
3,"CN[C@@H]1COc2cc(F)c(CNS(=O)(=O)c3cn(C)cn3)cc2[C@@H]1Cc1ccccc1 (relative stereo) [Example 31, cis-1-Methyl-1H-imidazole-4-sulfonic acid (-4-benzyl-7-fluoro-3-methylamino-chroman-6-ylmethyl)-amide]",≥ 7.00
4,"CN[C@@H]1COc2cc(F)c(CNS(=O)(=O)c3cn(C)cn3)cc2[C@H]1Cc1ccccc1 (relative stereo) [Example 32, trans-1-Methyl-1H-imidazole-4-sulfonic acid (-4-benzyl-7-fluoro-3-methylamino-chroman-6-ylmethyl)-amide]",≥ 8.00
5,"Cn1cnc(S(=O)(=O)NCc2ccc3c(c2)[C@H](Cc2ccccc2)[C@H](NCCC2CC2)CO3)c1 (relative stereo) [Example 33, cis-N-((-4-benzyl-3-((2-cyclopropylethyl)amino)chroman-6-yl)methyl)-1-methyl-1H-imidazole-4-sulfonamide 2,2,2-trifluoroacetate]",≥ 8.00
6,"CCCN[C@@H]1COc2ccc(CNS(=O)(=O)c3cn(C)cn3)cc2[C@@H]1Cc1ccccc1 (relative stereo) [Example 35, cis-N-((-4-benzyl-3-(propylamino)chroman-6-yl)methyl)-1-methyl-1H-imidazole-4-sulfonamide 2,2,2-trifluoroacetate]",≥ 8.00
7,"Cn1cnc(S(=O)(=O)NCc2ccc3c(c2)[C@H](Cc2ccccc2)[C@H](NCC(C)(C)C)CO3)c1 (relative stereo) [Example 36, cis-N-((-4-benzyl-3-(neopentylamino)chroman-6-yl)methyl)-1-methyl-1H-imidazole-4-sulfonamide 2,2,2-trifluoroacetate]",≥ 7.00
8,"Cn1cnc(S(=O)(=O)NCc2ccc3c(c2)[C@H](Cc2ccccc2)[C@H](NCC2CCC2)CO3)c1 (relative stereo) [Example 41, cis-N-((-4-benzyl-3-((cyclobutylmethyl)amino)chroman-6-yl)methyl)-1-methyl-1H-imidazole-4-sulfonamide 2,2,2-trifluoroacetate]",≥ 8.00
9,"CN[C@@H]1COc2ccc(CNS(C)(=O)=O)cc2[C@H]1Cc1ccccc1 (relative stereo) [Example 61, trans-N-(-4-Benzyl-3-methylamino-chroman-6-ylmethyl)-methanesulfonamide]",≥ 6.00
10,"N[C@@H]1COc2ccc(CNS(=O)(=O)CC3CC3)cc2[C@@H]1Cc1ccccc1 (relative stereo) [Example 67, cis-N-(-3-Amino-4-benzyl-chroman-6-ylmethyl)-C-cyclopropyl-methanesulfonamide]",≥ 8.00
11,"N[C@@H]1COc2ccc(CNS(=O)(=O)C3CCC3)cc2[C@@H]1Cc1ccccc1 (relative stereo) [Example 69, cis-Cyclobutanesulfonic acid (-3-amino-4-benzyl-chroman-6-ylmethyl)-amide]",≥ 7.00

# More lines, now with the values ahead:
row,pKi,SMILES
1,≥ 6.00,"CN[C@@H]1COc2ccc(CNS(=O)(=O)C3CCC3)cc2[C@H]1Cc1ccccc1 (relative stereo) [Example 26, trans-Cyclobutanesulfonic acid (4-benzyl-3-methylamino-chroman-6-ylmethyl)-amide]"
2,≥ 8.00,"CCS(=O)(=O)NCc1cc2c(cc1F)OC[C@@H](NC)[C@H]2Cc1ccccc1 (relative stereo) [Example 27, cis-Ethanesulfonic acid (-4-benzyl-7-fluoro-3-methylamino-chroman-6-ylmethyl)-amide]"
3,≥ 7.00,"CCS(=O)(=O)NCCOc1cc2c(cc1F)OC[C@@H](NC)[C@H]2Cc1ccccc1 (relative stereo) [Example 29, cis-Ethanesulfonic acid [2-(-4-benzyl-7-fluoro-3-methylamino-chroman-6-yloxy)-ethyl]-amide]"
4,≥ 5.00,"Cn1cnc(S(=O)(=O)NCc2ccc3c(c2)[C@H](Cc2ccccc2)[C@H](NCCC2CCCC2)CO3)c1 (relative stereo) [Example 34, cis-N-((-4-benzyl-3-((2-cyclopentylethyl)amino)chroman-6-yl)methyl)-1-methyl-1H-imidazole-4-sulfonamide 2,2,2-trifluoroacetate]"
5,≥ 8.00,"CC(C)CN[C@@H]1COc2ccc(CNS(=O)(=O)c3cn(C)cn3)cc2[C@@H]1Cc1ccccc1 (relative stereo) [Example 37, cis-N-((-4-benzyl-3-(isobutylamino)chroman-6-yl)methyl)-1-methyl-1H-imidazole-4-sulfonamide 2,2,2-trifluoroacetate]"
6,≥ 8.00,"CC(C)CCN[C@@H]1COc2ccc(CNS(=O)(=O)c3cn(C)cn3)cc2[C@@H]1Cc1ccccc1 (relative stereo) [Example 39, cis-N-((-4-benzyl-3-(isopentylamino)chroman-6-yl)methyl)-1-methyl-1H-imidazole-4-sulfonamide 2,2,2-trifluoroacetate]"
7,≥ 7.00,"Cn1cnc(S(=O)(=O)NCc2ccc3c(c2)[C@H](Cc2ccccc2)[C@H](NCC2CCCC2)CO3)c1 (relative stereo) [Example 40, cis-N-((-4-benzyl-3-((cyclopentylmethyl)amino)chroman-6-yl)methyl)-1-methyl-1H-imidazole-4-sulfonamide 2,2,2-trifluoroacetate]"
8,≥ 8.00,"Cn1cnc(S(=O)(=O)NCc2ccc3c(c2)[C@H](Cc2ccccc2)[C@H](N2CCCC2)CO3)c1 (relative stereo) [Example 62, cis-1-Methyl-1H-imidazole-4-sulfonic acid (-4-benzyl-3-pyrrolidin-1-yl-chroman-6-ylmethyl)-amide]"
9,≥ 7.00,"CCS(=O)(=O)NCc1ccc2c(c1)[C@H](Cc1ccccc1)[C@H](N1CCCC1)CO2 (relative stereo) [Example 63, cis-Ethanesulfonic acid (-4-benzyl-3-pyrrolidin-1-yl-chroman-6-ylmethyl)-amide]"
10,≥ 6.00,"CS(=O)(=O)NCc1ccc2c(c1)[C@H](Cc1ccccc1)[C@H](N1CCCC1)CO2 (relative stereo) [Example 64, cis-N-(-4-Benzyl-3-pyrrolidin-1-yl-chroman-6-ylmethyl)-methanesulfonamide]"
11,≥ 8.00,"O=S(=O)(CC1CC1)NCc1ccc2c(c1)[C@H](Cc1ccccc1)[C@H](N1CCCC1)CO2 (relative stereo) [Example 65, cis-N-(-4-Benzyl-3-pyrrolidin-1-yl-chroman-6-ylmethyl)-C-cyclopropyl-methanesulfonamide]"
12,≥ 8.00,"Cn1cc(S(=O)(=O)NCc2ccc3c(c2)[C@H](Cc2ccccc2)[C@H](N2CCCC2)CO3)cn1 (relative stereo) [Example 66, cis-1-Methyl-1H-pyrazole-4-sulfonic acid (-4-benzyl-3-pyrrolidin-1-yl-chroman-6-ylmethyl)-amide]"
13,≥ 7.00,"N[C@@H]1COc2ccc(CNS(=O)(=O)CC3CC3)cc2[C@H]1Cc1ccccc1 (relative stereo) [Example 68, trans-N-(-3-Amino-4-benzyl-chroman-6-ylmethyl)-C-cyclopropyl-methanesulfonamide]"
